Measured values reported in patent publication EP2386565A2, “Compounds and methods to inhibit or augment an inflammatory response” (Cambridge Enterprise Ltd., priority 1999, dated 2000).
Values joined by “and” are separate entries in the source; they are usually repeats but may differ in a detail not shown here. Identical values can stand only once. Positions of bridges follow the written chain, without caps; N, C: chain ends. Non-standard residues stand in square brackets, D forms with d. Residues, ends and D or L forms follow the SMILES beside them.

Legend:
[1] = system: ovalbumin-induced pulmonary inflammation, IgE, IL-4 and recall responses; assay: Ovalbumin-induced asthma / hypersensitivity model; type: in vivo, mice; conditions: Group 4: Ova on days 8, 15, 18, 21 & 35, treat BID 14 days, sacrifice day 35 (recent Ova challenge), 0 µg/ml Ova
[2] = Acute and 7-day repeat dose toxicity study; type: in vivo, rat
Text: That is, all animals remained clinically normal throughout.

focal ischemic lesion = assay: Intraluminal thread model of ischaemia reperfusion injury (MCAo 90 minutes); type: in vivo, rats
Method: The intraluminal thread (ILT) model is representative of clinical ischaemia reperfusion injury, it gives a focal ischemic lesion and is widely used in the pharmaceutical industry to test candidate compounds for neuroprotective efficacy. Fed, male Sprague Dawley rats (Charles Rivers, approximately 330 g) were anaesthetized with 2% halothane in 70/30 % N2O/O2 and the left middle cerebral artery occluded (MCAo) for 90 minutes using the ILT approach. The MCAo is achieved by the placement of a 3/0 nylon suture into the internal carotid artery and advancing it approximately 18 mm from the carotid bifurcation such that its tip is positioned approximately 1 mm beyond the origin of the MCA. […]
Throughout the surgical period, rectal temperature was monitored and maintained at 37°C with a heated blanket and feedback rectal temperature probe and arterial blood gases were measured prior to and immediately post MCAo. […]
The ischemic damage was assessed by conventional magnetic resonance imaging (T2, diffusion and proton density sequences) on day 1, 2 and 3 post MCAo. […]
After the final MR analysis at 72 hour post ictus the rats were decapitated, the brains removed, stored fresh in cryo-protecting medium at -70°C prior to quantitative immunohistochemical analysis of infiltrating leukocytes (Figure 34). […]

[3] = system: TGFβ1 induced human monocyte migration; assay: Migration of freshly prepared peripheral blood monocytes, TGFβ1; type: cell-based
Method: Agents may also be screened in a chemotactic assay which employs human neutrophils, eosinophils, mast cells, basophils, platelets, lymphocytes or monocytes. For monocytes, 9 mls of fresh blood are transferred to a tube containing 1 ml of 3.8% sodium citrate, and left at room temperature for 15 minutes. Five mls of this anti-coagulated blood are carefully layered over 3.5 ml Polymorphprep® (Nycomed Pharma, Oslo), and centrifuged at 500 g for 35 minutes per the manufacturer's instructions. The top band at the sample/medium interface contains monocytes. The monocytes are carefully removed with a glass pipette, and reconstituted to the original volume (5 ml). The cells are washed with PBS plus 10% fetal calf serum, and centrifuged at 400 g for 10 minutes. The washing step is repeated three times before the cells are counted. Cells are resuspended at 1 × 10^7 cells/ml in RPMI-1640 + 10% fetal calf serum (FCS). The monocytes are cultured for two days at 37°C in a humidified atmosphere of 5% CO2-
On day 2, the cells are counted, spun down, and reconstituted to 1 × 10^7 cells/ml in Gey's balanced salt solution + 1 mg/ml bovine serum albumin (BSA). […]

CC[C@@H](C)[C@H]1NC(=O)[C@@H](CCC(N)=O)NC(=O)[C@H](N)CSSC[C@H](C(N)=O)NC(=O)[C@@H](CC(C)C)NC(=O)[C@@H](CC(=O)O)NC(=O)[C@H]2CCCN2C(=O)[C@@H](CCCCN)NC(=O)[C@@H](CCC(N)=O)NC(=O)[C@@H](CCCCN)NC(=O)[C@@H](Cc2c[nH]c3ccccc23)NC1=O (H-[dC][dQ][dI][dW][dK][dQ][dK][dP][dD][dL][dC]-NH2; disulfide 1-11)
IL-4 Assays, pg/ml IL-4, individual mice m1-m4 [1]: 2.61 pg/mL and 1.11 pg/mL and 5.08 pg/mL and 2.88 pg/mL
Total IgM + IgG (1 week splenocyte cultures), individual mice m1-m4 ([1]; listed as CRD-Leu4Ile11Cys13 peptide 3(3-12)[MCP]): 15.32 and 25.86 and 14.87 and 12.60
acute toxicity (in words) ([2]; 1 or 10 mg (5-50 mg/kg) i.v.): no clinically detectable changes
7-day repeat dose toxicity (in words) ([2]; subcutaneous osmotic mini-pump, about 43 µg/hr for 7 days (7.2 mg)): no dose dependent or clinically significant changes
reduction in the mean infarct volume (focal ischemic lesion; 2 mg/kg bolus, then 0.5 mg/kg/hr i.v. for 72 hours, all time points, p < 0.0001): 50%
neutrophil accumulation in the penumbra of the lesion (in words) (focal ischemic lesion; rat, in vivo): complete suppression

CC[C@H](C)[C@H](NC(=O)[C@H](C)NC(=O)[C@H](CC(=O)O)NC(=O)[C@@H]1CCCN1C(=O)[C@H](CCC(N)=O)NC(=O)[C@H](C)N)C(=O)N[C@@H](CC(N)=O)C(=O)N[C@@H](C)C(=O)N1CCC[C@H]1C(=O)N[C@H](C(=O)N[C@H](C(=O)N[C@@H](CS)C(=O)N[C@@H](CS)C(=O)O)[C@@H](C)O)C(C)C [Peptide 1] (H-AQPDAINAPVTCC-OH; N-terminus and C-terminus assumed)
% inhibition at 100 µM versus TGFβ1 [3]: n.s.
